“And” between values parts separate entries of the source, which are not always exact repeats. Identical values can stand only once.

For assay [1], the target named is WT LacY (Escherichia coli, UniProt P02920). Nature of the assay: ITC, sugar. The format is binding. (ITC needs no label: the signal is the heat of the interaction.)
Assay [2] has as its target WT:Nb-9065 (Escherichia coli, UniProt P02920). Nature of the assay: ITC, α-NPG binding to WT LacY:Nb-9065 complex.
The target of assay [3] is Mutant:Nb-9065 (Escherichia coli, UniProt P02920, G262W/G46W). Nature of the assay: ITC, α-NPG binding to double-Trp mutant:Nb-9065 complex.
The target in assay [4] is Double-Trp mutant (G46W/G262W LacY) (Escherichia coli, UniProt P02920, G262W/G46W). Briefly: ITC, α-NPG binding to double-Trp mutant LacY. The note with it: ITC at 25 °C; no Nb.
Assay [5] addresses Mutant:Nb-9036 (Escherichia coli, UniProt P02920, G262W/G46W). Nature of the assay: ITC, α-NPG binding to double-Trp mutant:Nb-9036 complex.
Assay [6] has as its target WT:Nb-9036 (Escherichia coli, UniProt P02920). Nature of the assay: ITC, α-NPG binding to WT LacY:Nb-9036 complex.
Assay [7] addresses T1, WT LacY:Nb-9036 (Escherichia coli, UniProt P02920).
T1 sequence (P02920 whole entry, looked up): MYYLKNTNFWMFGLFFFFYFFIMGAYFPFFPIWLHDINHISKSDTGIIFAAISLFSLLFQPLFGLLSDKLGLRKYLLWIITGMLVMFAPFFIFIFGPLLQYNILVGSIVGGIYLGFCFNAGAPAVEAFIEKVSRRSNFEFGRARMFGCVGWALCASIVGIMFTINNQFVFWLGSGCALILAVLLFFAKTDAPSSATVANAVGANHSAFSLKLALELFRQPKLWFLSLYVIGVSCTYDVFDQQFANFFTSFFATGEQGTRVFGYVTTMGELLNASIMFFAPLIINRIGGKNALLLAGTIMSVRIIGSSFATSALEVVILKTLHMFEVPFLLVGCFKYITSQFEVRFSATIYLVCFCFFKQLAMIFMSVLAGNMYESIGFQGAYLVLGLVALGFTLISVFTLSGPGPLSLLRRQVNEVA
Briefly: ITC, IIA^Glc titration of WT LacY:Nb-9036 complex. The format is binding. The note with it: WT pre-equilibrated with Nb-9036; 10 mM melibiose.

Assay [8] relates to double-Trp mutant. Particulars: cited from earlier work.
Assay [9] deals with T2, WT LacY:Nb-9065 (Escherichia coli, UniProt P02920).
T2 sequence (P02920 whole entry, looked up): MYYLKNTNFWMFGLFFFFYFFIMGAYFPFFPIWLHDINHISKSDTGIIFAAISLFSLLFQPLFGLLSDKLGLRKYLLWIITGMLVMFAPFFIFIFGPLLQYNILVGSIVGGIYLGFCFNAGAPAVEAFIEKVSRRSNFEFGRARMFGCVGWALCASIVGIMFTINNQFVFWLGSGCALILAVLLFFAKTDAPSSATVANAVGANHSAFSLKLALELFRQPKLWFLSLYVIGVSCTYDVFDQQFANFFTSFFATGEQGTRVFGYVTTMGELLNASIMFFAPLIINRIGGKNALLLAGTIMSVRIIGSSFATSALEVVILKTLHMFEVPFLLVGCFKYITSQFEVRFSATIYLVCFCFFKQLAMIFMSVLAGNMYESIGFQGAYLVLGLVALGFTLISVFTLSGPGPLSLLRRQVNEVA
Particulars: WT pre-equilibrated with Nb-9065; 10 mM melibiose.

For assay [10], the target named is T3, WT LacY (Escherichia coli, UniProt P02920).
T3 sequence (P02920 whole entry, looked up): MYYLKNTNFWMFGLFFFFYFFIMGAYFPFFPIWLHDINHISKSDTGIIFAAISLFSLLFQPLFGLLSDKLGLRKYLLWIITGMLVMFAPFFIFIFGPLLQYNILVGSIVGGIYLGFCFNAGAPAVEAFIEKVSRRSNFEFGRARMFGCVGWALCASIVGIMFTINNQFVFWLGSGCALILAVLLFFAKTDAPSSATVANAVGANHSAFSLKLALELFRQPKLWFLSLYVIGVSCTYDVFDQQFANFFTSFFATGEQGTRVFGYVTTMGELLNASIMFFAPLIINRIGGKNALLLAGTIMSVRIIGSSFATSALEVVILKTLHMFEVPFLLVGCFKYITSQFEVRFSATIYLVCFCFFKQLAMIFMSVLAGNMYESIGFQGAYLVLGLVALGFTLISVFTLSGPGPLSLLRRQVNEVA
The note with it: cytoplasmic face of the WT; cited from earlier work.

Assay [11] has as its target T4, lactose permease of Escherichia coli (LacY), wild type (Escherichia coli, UniProt P02920 1-417).
T4 sequence: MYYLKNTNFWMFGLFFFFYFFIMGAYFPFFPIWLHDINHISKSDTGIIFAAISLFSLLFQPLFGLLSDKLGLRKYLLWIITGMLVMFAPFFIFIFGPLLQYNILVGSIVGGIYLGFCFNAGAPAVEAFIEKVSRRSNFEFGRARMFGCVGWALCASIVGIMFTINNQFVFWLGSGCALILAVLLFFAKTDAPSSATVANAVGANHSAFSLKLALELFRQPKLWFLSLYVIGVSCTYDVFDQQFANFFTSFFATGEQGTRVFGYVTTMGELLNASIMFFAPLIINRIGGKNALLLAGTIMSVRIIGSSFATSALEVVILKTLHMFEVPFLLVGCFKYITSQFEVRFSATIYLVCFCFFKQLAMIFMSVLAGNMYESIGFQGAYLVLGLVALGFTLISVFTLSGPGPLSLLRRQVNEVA
Nature of the assay: ITC.

The mark [12] stands for this setting: ITC at 25 °C, WT pre-incubated with Nb-9065.
Where [13] appears, read: difference in the absence and presence of Nb-9065, WT.
The mark [14] stands for this setting: ITC at 25 °C, mutant pre-incubated with Nb-9065.
Setting [15] is: difference in the absence and presence of Nb-9065, mutant.
Setting [16] is: ITC at 25 °C, mutant pre-incubated with Nb-9036.
[17] abbreviates: difference in the absence and presence of Nb-9036, mutant.
[18] abbreviates: difference in the absence and presence of Nb-9036, mutant, listed as galactoside.
[19] abbreviates: ITC at 25 °C, WT pre-incubated with Nb-9036.
Setting [20] is: difference in the absence and presence of Nb-9036, WT.
The mark [21] stands for this setting: difference in the absence and presence of Nb-9036, WT, listed as galactoside.

Chain of Mutant:Nb-9036 (P02920 whole entry G46W/G262W): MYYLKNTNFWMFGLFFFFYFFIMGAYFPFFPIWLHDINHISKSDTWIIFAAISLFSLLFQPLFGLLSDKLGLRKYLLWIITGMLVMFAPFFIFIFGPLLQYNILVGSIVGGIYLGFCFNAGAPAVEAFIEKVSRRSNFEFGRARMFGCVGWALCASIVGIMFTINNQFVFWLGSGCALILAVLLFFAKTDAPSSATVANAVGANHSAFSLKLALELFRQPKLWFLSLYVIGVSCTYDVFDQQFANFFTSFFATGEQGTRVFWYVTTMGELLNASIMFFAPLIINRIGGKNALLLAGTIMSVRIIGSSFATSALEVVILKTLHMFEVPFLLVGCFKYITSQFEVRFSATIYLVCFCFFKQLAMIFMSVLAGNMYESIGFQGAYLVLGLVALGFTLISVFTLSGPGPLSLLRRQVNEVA
Chain of Mutant:Nb-9065 (P02920 whole entry G46W/G262W): as above
Chain of Double-Trp mutant (G46W/G262W LacY) (P02920 whole entry G46W/G262W): as above

In the case of `O=[N+]([O-])c1ccc(O[C@H]2O[C@H](CO)[C@@H](O)[C@H](O)[C@H]2O)cc1` [nitrophenyl-α-D-glucopyranoside], the “titration thermogram (control)” value in assay [1] (ITC, 1 mM injected into WT LacY) is reported as “small, relatively flat thermogram”.
On to `O=[N+]([O-])c1ccc(O[C@H]2O[C@H](CO)[C@H](O)[C@H](O)[C@H]2O)cc1` [α-NPG, p-nitrophenyl-α-D-galactopyranoside], for which the “-TΔS” value in assay [2] (setting [12]) is recorded as 21.0 (1.7) kJ/mol; in assay [1] (ITC at 25 °C, no Nb) it was −10.3 (3.6) kJ/mol; in assay [3] (setting [14]), 12.43 (0.9) kJ/mol; in [4] it was 11.8 (0.3) kJ/mol; in assay [5] (setting [16]), 34.2 (2.9) kJ/mol; in [6] (setting [19]) it was 17.2 (0.5) kJ/mol. In addition, the Kd (as a rule, the free concentration of one partner at which half of the binding sites on the other are occupied at equilibrium, for simple one-to-one binding) in [2] (setting [12]) was 5700 nM; in [1] (ITC at 25 °C, no Nb) it was 28800 nM; in assay [3] (setting [14]), 7100 nM; in assay [4] it was 5000 nM; in assay [5] (setting [16]), ~300 nM and 300 nM; in [6] (setting [19]), ~300 nM and 300 nM. The “N (stoichiometry)” value was 0.5 (0.0) in [2] (setting [12]); 0.6 (0.1) in [1] (ITC at 25 °C, no Nb); 0.4 (0.0) in [3] (setting [14]); 0.5 (0.0) in assay [4]; 0.6 (0.0) in [5] (setting [16]); 0.5 (0.1) in [6] (setting [19]). Also, the ΔG in assay [2] (setting [12]) is listed as −30.0 (0.1) kJ/mol; in assay [1] (ITC at 25 °C, no Nb), −25.9 (0.2) kJ/mol; in [3] (setting [14]), −29.4 (0.2) kJ/mol; in assay [4], −30.3 (0.3) kJ/mol; in [5] (setting [16]) it was −37.5 (0.4) kJ/mol; in [6] (setting [19]) it was −37.1 (0.6) kJ/mol. Further, the ΔH in [2] (setting [12]) is recorded as −51.0 (1.8) kJ/mol; in assay [1] (ITC at 25 °C, no Nb) it was −15.6 (3.4) kJ/mol; in assay [3] (setting [14]), −41.8 (1.05) kJ/mol; in [4], −42.1 (0.0) kJ/mol; in assay [5] (setting [16]), −71.7 (2.5) kJ/mol; in assay [6] (setting [19]) it was −54.3 (1.1) kJ/mol. In [2] (Nb-9065:WT complex versus WT alone), the “fold decrease in Kd by Nb” value is 4 fold. For the same molecule, the ΔΔG entry in assay [2] (setting [13]) is “[−4.1 ^**] kJ/mol”; in assay [3] (setting [15]), “[0.9^ns] kJ/mol”; in assay [5] (setting [17]), “[−7.2 ^**] kJ/mol”; in assay [6] (setting [20]), “[−11.2 ^**] kJ/mol”. Besides, the ΔΔH result in assay [2] (setting [13]) was “[−35.4 ^*] kJ/mol”; in assay [3] (setting [15]), “[0.3^ns] kJ/mol”; in assay [5] (setting [17]), “[−29.6 ^**] kJ/mol”; in [5] (setting [18]), -7.07 kcal/mol; in assay [6] (setting [20]), “[−38.7 ^**] kJ/mol”; in assay [6] (setting [21]) it was -9.25 kcal/mol. Also, the “−TΔΔS” value in [2] (setting [13]) was “[31.3 ^*] kJ/mol”; in assay [3] (setting [15]), “[0.6^ns] kJ/mol”; in [5] (setting [17]), “[22.4 ^*] kJ/mol”; in [5] (setting [18]) it was 5.35 kcal/mol; in assay [6] (setting [20]) it was “[27.5 ^*] kJ/mol”; in assay [6] (setting [21]), 6.57 kcal/mol. The “change in Kd by Nb” value in [3] (Nb-9065:mutant complex versus mutant alone) is recorded as “no detectable change”. In addition, the “fold decrease in Kd (increase in affinity) by Nb” value in assay [5] (Nb-9036:mutant complex versus mutant alone) is listed as about 19 fold; in assay [6] (Nb-9036:WT complex versus WT alone), about 96 fold.
On to “IIA^Glc: a phosphotransferase protein of the glucose-specific phosphoenolpyruvate:carbohydrate phosphotransferase system (E. coli, unphosphorylated)”, for which the “IIA^Glc binding (thermogram)” value in [7] and in assay [9] was “no IIA^Glc binding” each time. The “IIA^Glc binding” value in assay [8] is given as “does not bind”. Moreover, the “heat of IIA^Glc binding” value in assay [10] is on record as “endothermic”.

B1: IIA^Glc, phosphotransferase protein of the glucose-specific phosphoenolpyruvate:carbohydrate phosphotransferase system (natural protein, E. coli, UniProt P69783 1-169, looked up)
chain: MGLFDKLKSLVSDDKKDTGTIEIIAPLSGEIVNIEDVPDVVFAEKIVGDGIAIKPTGNKMVAPVDGTIGKIFETNHAFSIESDSGVELFVHFGIDTVELKGEGFKRIAEEGQRVKVGDTVIEFDLPLLEEKAKSTLTPVVISNMDEIKELIKLSGSVTVGETPVIRIKK
For the molecule B1, the binding result in assay [11] is “binds”.

Values taken from publication PMC6478161 (Biochemistry, 2016).
